Target: T1, human NOX4 (Homo sapiens, UniProt Q9NPH5)
T1 construct: expressed in transfected cells; membrane fraction used
T1 sequence (Q9NPH5 1-578): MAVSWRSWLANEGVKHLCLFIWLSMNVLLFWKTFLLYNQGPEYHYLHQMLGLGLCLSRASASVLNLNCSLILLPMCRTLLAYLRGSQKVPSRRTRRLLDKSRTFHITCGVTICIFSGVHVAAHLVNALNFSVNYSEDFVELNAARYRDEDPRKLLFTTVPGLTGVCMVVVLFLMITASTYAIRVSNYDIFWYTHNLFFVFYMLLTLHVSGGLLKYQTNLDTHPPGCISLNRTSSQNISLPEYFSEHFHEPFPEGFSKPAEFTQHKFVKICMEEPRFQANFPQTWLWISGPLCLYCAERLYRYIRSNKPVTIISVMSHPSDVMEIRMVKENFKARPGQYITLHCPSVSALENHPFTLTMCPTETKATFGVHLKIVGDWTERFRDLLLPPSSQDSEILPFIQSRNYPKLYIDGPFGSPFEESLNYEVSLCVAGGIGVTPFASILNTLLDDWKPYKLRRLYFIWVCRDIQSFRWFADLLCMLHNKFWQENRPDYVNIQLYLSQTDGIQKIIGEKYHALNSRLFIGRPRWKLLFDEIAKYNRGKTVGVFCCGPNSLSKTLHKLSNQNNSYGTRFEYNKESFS
T1 sequence (P13498 1-195 partner): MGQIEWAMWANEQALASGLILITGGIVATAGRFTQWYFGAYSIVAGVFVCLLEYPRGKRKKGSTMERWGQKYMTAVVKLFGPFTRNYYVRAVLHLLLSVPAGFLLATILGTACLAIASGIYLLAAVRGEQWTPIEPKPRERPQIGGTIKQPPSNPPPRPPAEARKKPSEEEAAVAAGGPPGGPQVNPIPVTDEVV
Assay: Cell free membrane based in vitro NOX4 assay: H2O2 production by membranes expressing human NOX4, measured with Amplex Red
Assay type: biochemical
Settings: for inhibition at 1 µM: read-out: Percentage inhibition at 1.0 μM; for inhibition at 10 µM: read-out: Percentage inhibition at 10.0 μM; for IC50: class symbols
Method in brief: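 Membranes from HEK cells stably overexpressing human NOX4 were preincubated 20 min with inhibitor in pH 7.4 HEPES buffer containing HRP and Amplex Red, then NADPH was added. H2O2 was followed for 10 min by fluorescence (ex 544/em 590 nm). IC50 from nonlinear regression of % maximal uninhibited response.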

Compound	inhibition at 1 µM (1.0 μM compound) [%]	inhibition at 10 µM (10.0 μM compound) [%]	IC50 [nM]	Percentage inhibition at 1.0 μM (1.0 μM compound, 1 µM) [%]	Percentage inhibition at 10.0 μM (10.0 μM compound) [%]
CCc1nn(CCN2C[C@@H](C)O[C@@H](C)C2)c2[nH]c(-c3ccccc3Cl)c(O)c(=O)c12 [Example 202, 6-(2-Chlorophenyl)-1-(2-((2R,6S)-2,6-dimethylmorpholino)ethyl)-3-ethyl-5-hydroxy-1H-pyrazolo[3,4-b]pyridin-4(7H)-one]	82.8	78	100 to 150	–	–
CCc1nn(CCO)c2[nH]c(-c3c(F)cccc3F)c(O)c(=O)c12 [Example 203, 6-(2,6-Difluorophenyl)-3-ethyl-5-hydroxy-1-(2-hydroxyethyl)-1H-pyrazolo[3,4-b]pyridin-4(7H)-one]	82.5	77.7	50 to 100	–	–
O=c1c(O)c(-c2c(F)cccc2F)[nH]c2c1c(C1CCOCC1)nn2-c1ccc(F)cc1 [Example 204, 6-(2,6-Difluorophenyl)-1-(4-fluorophenyl)-5-hydroxy-3-(tetrahydro-2H-pyran-4-yl)-1H-pyrazolo[3,4-b]pyridin-4(7H)-one]	95.2	99.7	100 to 150	–	–
CCc1nn(CCN2CCC(F)(F)CC2)c2[nH]c(-c3c(F)cccc3F)c(O)c(=O)c12 [Example 205, 6-(2,6-Difluorophenyl)-1-(2-(4,4-difluoropiperidin-1-yl)ethyl)-3-ethyl-5-hydroxy-1H-pyrazolo[3,4-b]pyridin-4(7H)-one]	95.9	94.6	50 to 100	–	–
CCc1nn(CCCN2C[C@@H](C)O[C@@H](C)C2)c2[nH]c(-c3c(F)cccc3F)c(O)c(=O)c12 [Example 206, 6-(2,6-Difluorophenyl)-1-(3-((2R,6S)-2,6-dimethylmorpholino)propyl)-3-ethyl-5-hydroxy-1H-pyrazolo[3,4-b]pyridin-4(7H)-one]	94.6	91.3	50 to 100	–	–
CCc1nn(CC2CCOCC2)c2[nH]c(-c3c(F)cccc3F)c(O)c(=O)c12 [Example 207, 6-(2,6-Difluorophenyl)-3-ethyl-5-hydroxy-1-((tetrahydro-2H-pyran-4-yl)methyl)-1H-pyrazolo[3,4-b]pyridin-4(7H)-one]	87.8	88.2	50 to 100	–	–
CCc1nn(CC2CCOCC2)c2[nH]c(-c3ccccc3Cl)c(O)c(=O)c12 [Example 208, 6-(2-Chlorophenyl)-3-ethyl-5-hydroxy-1-((tetrahydro-2H-pyran-4-yl)methyl)-1H-pyrazolo[3,4-b]pyridin-4(7H)-one]	82.5	71.6	100 to 150	–	–
Cn1nc(CC2CCOCC2)c2c(=O)c(O)c(-c3c(F)cccc3F)[nH]c21 [Example 209, 6-(2,6-Difluorophenyl)-5-hydroxy-1-methyl-3-((tetrahydro-2H-pyran-4-yl)methyl)-1H-pyrazolo[3,4-b]pyridin-4(7H)-one]	89.5	89.8	50 to 100	–	–
CCc1nn(CCN2CCC(F)(F)CC2)c2[nH]c(-c3ccccc3Cl)c(O)c(=O)c12 [Example 210, 6-(2-Chlorophenyl)-1-(2-(4,4-difluoropiperidin-1-yl)ethyl)-3-ethyl-5-hydroxy-1H-pyrazolo[3,4-b]pyridin-4(7H)-one]	91	86.3	> 150	–	–
CCc1nn(CCC2CCOCC2)c2[nH]c(-c3c(F)cccc3F)c(O)c(=O)c12 [Example 211]	92.4	93.7	50 to 100	–	–
CCc1nn(CCC2CCOCC2)c2[nH]c(-c3ccccc3Cl)c(O)c(=O)c12 [Example 212, 6-(2-Chlorophenyl)-3-ethyl-5-hydroxy-1-(2-(tetrahydro-2H-pyran-4-yl)ethyl)-1H-pyrazolo[3,4-b]pyridin-4(7H)-one]	81.5	71.7	> 150	–	–
CCc1nn(CCC2CCOCC2)c2[nH]c(-c3cccc(C(F)(F)F)c3F)c(O)c(=O)c12 [Example 213, 3-Ethyl-6-(2-fluoro-3-(trifluoromethyl)phenyl)-5-hydroxy-1-(2-(tetrahydro-2H-pyran-4-yl)ethyl)-1H-pyrazolo[3,4-b]pyridin-4(7H)-one]	86.9	75.6	> 150	–	–
CC(C)CN1CCN(Cc2nn(C)c3[nH]c(-c4c(F)cccc4F)c(O)c(=O)c23)CC1 [Example 214, 6-(2,6-Difluorophenyl)-5-hydroxy-3-((4-isobutylpiperazin-1-yl)methyl)-1-methyl-1H-pyrazolo[3,4-b]pyridin-4(7H)-one]	81.8	85	> 150	–	–
O=c1c(O)c(-c2c(F)cccc2F)[nH]c2c1c(CO)nn2CC1CCOCC1 [Example 215, 6-(2,6-difluorophenyl)-5-hydroxy-3-(hydroxymethyl)-1-((tetrahydro-2H-pyran-4-yl)methyl)-1H-pyrazolo[3,4-b]pyridin-4(7H)-one]	78.8	87.3	100 to 150	–	–

Next, values leading:

inhibition at 1 µM (1.0 μM compound) [%]	inhibition at 10 µM (10.0 μM compound) [%]	IC50 [nM]	Percentage inhibition at 1.0 μM (1.0 μM compound, 1 µM) [%]	Percentage inhibition at 10.0 μM (10.0 μM compound) [%]	Compound
73.4	88.3	> 150	–	–	Cn1nc(CN2CCN(C3CC3)CC2)c2c(=O)c(O)c(-c3c(F)cccc3F)[nH]c21 [Example 216, 3-((4-Cyclopropylpiperazin-1-yl)methyl)-6-(2,6-difluorophenyl)-5-hydroxy-1-methyl-1H-pyrazolo[3,4-b]pyridin-4(7H)-one]
83.8	89.7	100 to 150	–	–	O=c1c(O)c(-c2c(F)cccc2F)[nH]c2c1c(CO)nn2CCC1CCOCC1 [Example 217, 6-(2,6-difluorophenyl)-5-hydroxy-3-(hydroxymethyl)-1-(2-(tetrahydro-2H-pyran-4-yl)ethyl)-1H-pyrazolo[3,4-b]pyridin-4(7H)-one]
85.5	90.1	50 to 100	–	–	CCc1nn(CCS(C)(=O)=O)c2[nH]c(-c3c(F)cccc3F)c(O)c(=O)c12 [Example 218, 6-(2,6-Difluorophenyl)-3-ethyl-5-hydroxy-1-(2-(methylsulfonyl)ethyl)-1H-pyrazolo[3,4-b]pyridin-4(7H)-one]
81.7	89.2	> 150	–	–	Cn1nc(CN2CCN(C3COC3)CC2)c2c(=O)c(O)c(-c3c(F)cccc3F)[nH]c21 [Example 219, 6-(2,6-Difluorophenyl)-5-hydroxy-1-methyl-3-((4-(oxetan-3-yl)piperazin-1-yl)methyl)-1H-pyrazolo[3,4-b]pyridin-4(7H)-one]
–	–	> 150	87.57	100.00	Cn1nc(CN2CCN(CC(F)(F)F)CC2)c2c(=O)c(O)c(-c3c(F)cccc3F)[nH]c21 [Example 220, 6-(2,6-Difluorophenyl)-5-hydroxy-1-methyl-3-((4-(2,2,2-trifluoroethyl)piperazin-1-yl)methyl)-1H-pyrazolo[3,4-b]pyridin-4(7H)-one]
84	97.1	> 150	–	–	Cn1nc(CN2CCN(CCF)CC2)c2c(=O)c(O)c(-c3c(F)cccc3F)[nH]c21 [Example 221, 6-(2,6-Difluorophenyl)-3-((4-(2-fluoroethyl)piperazin-1-yl)methyl)-5-hydroxy-1-methyl-1H-pyrazolo[3,4-b]pyridin-4(7H)-one]
86.2	92.7	> 150	–	–	CC(C)N1CCN(Cc2nn(C)c3[nH]c(-c4c(F)cccc4F)c(O)c(=O)c23)C[C@@H]1C [Example 222, (S)-6-(2,6-Difluorophenyl)-5-hydroxy-3-((4-isopropyl-3-methylpiperazin-1-yl)methyl)-1-methyl-1H-pyrazolo[3,4-b]pyridin-4(7H)-one]
89.7	96.6	100 to 150	–	–	CC(C)N1CCN(Cc2nn(C)c3[nH]c(-c4c(F)cccc4F)c(O)c(=O)c23)C[C@H]1C [Example 223, (R)-6-(2,6-Difluorophenyl)-5-hydroxy-3-((4-isopropyl-3-methylpiperazin-1-yl)methyl)-1-methyl-1H-pyrazolo[3,4-b]pyridin-4(7H)-one]
80.1	90.7	> 150	–	–	Cn1nc(C(F)(F)F)c2c(=O)c(O)c(-c3ccc(O)cc3)[nH]c21 [Example 225, 5-hydroxy-6-(4-hydroxyphenyl)-1-methyl-3-(trifluoromethyl)-1,7-dihydro-4H-pyrazolo[3,4-b]pyridin-4-one]
22.9	66.9	–	–	–	CC(=O)Oc1c(-c2c(F)cccc2F)[nH]c2c(c(C)nn2C)c1=O [Example 226]
6.03	16	–	–	–	Cc1c2oc(-c3ccccc3Cl)c(O)c(=O)c2nn1C [Example 227, 5-(2-chlorophenyl)-6-hydroxy-2,3-dimethylpyrano[3,2-c]pyrazol-7(2H)-one]

From patent US20200247800A1, “SUBSTITUTED BICYCLIC HETEROCYCLIC COMPOUNDS AS NADPH OXIDASE INHIBITORS” (Glenmark Pharmaceuticals S.A., priority 2017, published 2020)
